pIC50: −log10 of the molar value.

Common to all, as to assay type: cell-based
Experiment [1] relates to SK-BR-3. The experiment can be described thus: CellTiter-Glo toxicity, 3 days (Example 7). The following applies: Homo sapiens, SK-BR-3, 72 h; 3 days; read-out: SK-BR-3 IC50. Here is the method: The toxicity of PBD monomer disulfide prodrugs 1 to 4, PBD dimer disulfide prodrugs 1 and 4, PBD monomer control 1 and PBD dimer control 1 were evaluated against SK-BR-3 cell cultures. […] The HER2-positive breast cancer cell line, SK-BR-3, was obtained internally at Genentech after having been verified by sequence analysis. The cells were grown at 37 Celsius in DMEM+10% FBS supplemented with 2 mM L-glutamine for the duration of this assay. On the first day of the experiment, designated “Day −1”, SK-BR-3 cells were harvested from tissue culture flasks, counted, and then seeded into 96-well plates at a concentration of 7,500 cells per well. The next day, designated “Day 0”, cell culture media was removed from the cells and replaced with 100 uL of fresh media containing a serial dilution (1:3) of the compounds in Table 5 below. The plates were then returned to the 37 Celsius incubator and allowed to incubate for 3 days. On “Day 3” of the assay, the plates were removed from the incubator and allowed to equilibrate to room temperature before adding 100 uL of room-temperature CellTiter-Glo reagent (Promega). The plates were then agitated at 300 rpm for 10 minutes. The luminescence signal generated from this reaction was recorded on an Envision plate reader (Perkin-Elmer). The data were arranged in Excel (Microsoft) and graphed in Kaleidagraph (Synergy Software).

In experiment [2] the test system is A2058. The experiment can be described thus: CellTiter-Glo toxicity, 4 days (Example 9). The following applies: Homo sapiens, A2058, 96 h, 4 days of drug incubation; Table 7A. An outline of the steps: (§1)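 Cells were seeded in 384-well plates, dosed 24 h later and incubated with drug for 4 days. Viability was read as ATP luminescence by CellTiter-Glo and normalised to untreated controls. IC50 is the concentration giving 50% of maximum cell killing.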

Experiment [3] relates to Igrov-1. The experiment can be described thus: CellTiter-Glo toxicity, 4 days (Example 9). The following applies: Homo sapiens, IGROV-1, 96 h, 4 days of drug incubation; Table 7A. An outline of the steps: as §1
For orientation: Cellular ATP, detected with luciferase, serves as a proxy for viable cell number.

Experiment [4] relates to UACC-257. The experiment can be described thus: CellTiter-Glo toxicity, 4 days (Example 9). Particulars: Homo sapiens, UACC-257, 96 h, 4 days of drug incubation; Table 7A. An outline of the steps:
as §1

As to `C=C1C[C@H]2C=Nc3cc(OC)c(OC)cc3C(=O)N2C1` [PBD monomer control 1, reference compound], the pIC50 (commonly the negative decadic logarithm of the IC50, by convention in mol/L) in experiment [1] is 6.91; in experiment [2], 7.24; in experiment [3] it was 7.16; in experiment [4], 6.74.

(Values after patent publication US11576979B2, “Pyrrolobenzodiazepine prodrugs and antibody conjugates thereof” (GENENTECH, INC., priority 2016, dated 2023).)
